Where “and” joins values, the source holds several entries; their conditions need not be identical. Equal values may be shown once. Where a name gives a salt, the structure may show the parent alone. Read-outs that look alike come from different tables or passages of the source.

Here are results for 2 compounds from article PMC7651685 (Psychopharmacology, 2020).

Data set [1] deals with plasma protein. The data set is described as follows: Plasma protein binding. Conditions: for Free plasma concentration (fraction): as fraction; for Free plasma concentration (fraction) / Free plasma concentration: from plasma protein binding.
Data set [2] can be described thus: Extrapolated permeability and half-time to reach brain equilibrium (equation of Liu et al.). From the text: While lipid solubility and protein binding influences brain penetration, it appears that it is the combination of these two properties that influences the rate of brain penetration of a drug (Liu et al [2005]). […] The half-time to reach brain equilibrium (t1/2 equil) can be estimated by the following equation:
t1/2 equil = Vbln2/(PS.fu,brain)
where Vb is brain volume, PS is the permeability surface area product, P is the permeability rate, S is the surface area and fu is the unbound (free) drug brain concentration.
For comparative purposes between MPH and DAS, we can assume Vb and surface area are the same for both drugs, and the above equation becomes: t1/2equil∝1/P.fu,brain
As mentioned above, plasma protein binding of DAS and MPH are ~ 0.97 (or ~ 97%) and ~ 0.14 (or 14%) respectively, and the free plasma concentration of DAS is 0.03 and for MPH, it is 0.86. Since free drug plasma concentration is equal to free drug brain concentration, we can apply the free drug plasma concentration values of DAS and MPH together with the extrapolated permeability for DAS (12P) and MPH (P) to approximate t1/2 equil for both drugs, i.e.,

A short description of data set [3]: Plasma levels of DAS or MPH during the displacement studies. The class given is in vivo, rhesus macaques (Macaca mulatta). Particulars: for Average plasma (infusion period): individual animals A, B. The method, then:
Venous blood samples (1 ml) were collected during the respective bolus and 4-step infusion displacement studies to measure the plasma levels of either DAS or MPH. Blood samples were collected in K3 EDTA vials, processed for plasma, frozen, and stored at − 20 °C until required for HPLC analysis of either DAS or MPH levels.

Data set [4] has as its system D2 receptors. Description: [11C]-Raclopride PET: elevation of synaptic dopamine. The method, then: Two female rhesus macaques (weight, 8.4 ± 0.2 kg; age, 16.6 ± 0.5) were scanned with [^11C]-Raclopride a total of 8 times, each under 4 scanning conditions per test agent. All scans were performed with [^11C]-Raclopride (tracer mass limited to 0.25 μg/kg) administered as an intravenous (i.v.) bolus + constant infusion (3 min bolus +132 min infusion; Kbol = 60 min; injected dose 5.8 ± 1.0 mCi). Scan data collection began simultaneously with tracer injection using the Siemens FOCUS 220 PET scanner. The scan data was acquired for 135 min and binned into sinograms with the following frame timing: 6 × 30 s; 3 × 1 min; 2 × 2 min; and 25 × 5 min. Prior to each tracer injection, a transmission scan was performed with an external gamma source for attenuation correction.
Experiment day 1 consisted of an initial [^11C]-Raclopride injection with MPH given i.v. at 45 min post-start of tracer administration under tracer steady-state conditions (displacement experiment). A second [^11C]-Raclopride scan was initiated ~ 2.5–3.5 h after the start of scan 1. Experiment day 2 consisted of a MPH pre-block initiated ~ 30 min prior to the first scan. A second scan was again initiated ~ 2.5–3.5 h after the start of scan 1. This same 2-day scanning paradigm was completed for both subjects and repeated using DAS in place of MPH. The test agent doses used were 0.2 mg/kg for DAS and 0.5 mg/kg for MPH. A minimum of 2-week recovery time was allowed between scans with the same subject.
Dynamic scan data were reconstructed with a filtered back-projection algorithm with corrections for attenuation, normalization, scatter, and randoms. ROIs were manually delineated on a single representative anatomical rhesus monkey magnetic resonance image (MRI) registered to a template image. Regions used in this study were caudate and putamen with the cerebellum as the reference region. Registration parameters were obtained to apply the ROIs to individual PET scans, and regional TACs were generated for the ROIs. Apparent binding potential (BPND) curves (target-to-cerebellum ratio - 1) were calculated for putamen and caudate by pooling the data from the 4 injections for each animal/drug combination. The following models were used to describe the apparent BPND curves. Model 1 is based on a gamma function where the occupancy increases, reaches a maximum, and then decreases, and both phases can be measured in the study. Model 2 has only increasing occupancy with time, approaching an asymptotic value. • Model 1: Four-parameter model (gamma function):
The change of BPND over time is modeled using a gamma function. BPNDt=BP01−At−t0^αexp−βt−t0t≥t0
The model can be reformulated as follows: BPNDt=BP01−Occ^maxt−t0/tmax−t0^αexpα1−t−t0/tmax−t0t≥t0α≡−ln2/1−τ+lnττ≡t1/2,R−t0/tmax−t0τ<1ort1/2,F−t0/tmax−t0τ>1 where t0 is the known time of drug administration and BP0 is the apparent BPND at time t0. The maximum occupancy, Occ^max, is obtained at time, tmax. The occupancy rises to 50% of Occ^max at the time, t1/2,R (< tmax), and falls to 50% of Occ^max at time, t1/2,F (> tmax). The 4 parameters of this model are BP0, Occ^max, tmax, and t1/2,R (or t1/2,F). • Model 2: Three-parameter model: BPNDt=BP01−Occ^max1−exp−βt−t0,β=ln2/t1/2,R−t0t≥t0
The parameters of this model are BP0, Occ^max, and t1/2,R.

Data set [5] can be described thus: Tolerability and vital signs after i.v. administration. Conditions: for Changes in heart rate, respiratory rate, blood pressure, oxygen saturation and temperature compared with baseline: after i.v. administration, data not shown; for Tolerability of i.v. administration: all doses examined. The class given is in vivo, rhesus macaques. The method, then:
PET experiments within an animal were spaced at least 2 weeks apart to allow recovery from anesthesia. Animals were fasted for 18–24 h prior to each PET scan experiment. At 2–2.5 h before radiotracer injection, the animal was anesthetized with ketamine (10–15 mg/kg) and glycopyrrolate 0.01 mg/kg i.m., transferred to the PET camera, and intubated with an endotracheal tube for continued anesthesia with 2.0–2.5% isoflurane administered through a rebreathing circuit. An intravenous line was placed and used for injection of radiotracer and administration of the drug. A heated water blanket was used to maintain normal body temperature (37 °C). Vital signs, including heart rate, blood pressure, respiration rate, oxygen saturation, and body temperature, were monitored approximately every 1 to 15 min during the study (data not shown).
Animals tolerated i.v. administration of DAS or MPH at all doses examined.

Data set [6] has as its system plasma protein. Particulars: cited from earlier work.
Data set [7] concerns DAT. Particulars: cited from earlier work.
Data set [8] relates to dopamine efflux in the nucleus accumbens. The arrangement: method as in Rowley et al. [2017]. Particulars: rat nucleus accumbens microdialysis; ref Rowley et al. [2017]; cited from earlier work.
[9] abbreviates: MPH 0.5 mg/kg i.v., model 1 fit.
Setting [10] is: DAS 0.2 mg/kg i.v., model 2 fit.

Regarding `COC(=O)C(c1ccccc1)C1CCCCN1` (racemic) [MPH, (±)-Methyl α-Phenyl-α-(2-piperidyl)acetate hydrochloride, reference compound], in data set [1] (MPH relative to DAS), the “Free plasma concentration higher than that of DAS” value is on record as roughly 30 fold. Also, in data set [1], the “Free plasma concentration (fraction)” value is 0.86. Moreover, in data set [1], the Free plasma concentration worked out at 86%. The “Faster than DAS in reaching brain equilibrium” value in data set [2] (MPH relative to DAS, from t1/2equil) is listed as greater than 2 fold. Moreover, the “Cmax, Mean ± SD” value in data set [3] (MPH 0.1 mg/kg i.v. 3 min bolus, group mean) was 169.2 ± 28.4 ng/mL. Further, the Cmax is 137 ng/mL and 177 ng/mL and 117 ng/mL in data set [3] (MPH 0.1 mg/kg i.v. 3 min bolus, individual animals A-D); 823 ng/mL and 609 ng/mL and 729 ng/mL in data set [3] (MPH 0.5 mg/kg i.v. 3 min bolus, individual animals A-D); 169 ± 28.4 ng/mL in data set [3] (rhesus monkey, plasma, iv, 0.1 mg/kg, MPH 0.1 mg/kg i.v. 3 min bolus, group mean, read-out: Cmax, Mean ± SD); 823 ± 111 ng/mL in data set [3] (rhesus monkey, plasma, iv, 0.5 mg/kg, MPH 0.5 mg/kg i.v. 3 min bolus, group mean, read-out: Cmax, Mean ± SD); 1130 ng/mL in data set [3] (rhesus monkey, plasma, iv, 0.5 mg/kg, MPH 0.5 mg/kg i.v. 3 min bolus, individual animals A-D, read-out: Cmax). The “Average plasma (infusion period)” value in data set [3] (MPH 4.3 mg, bolus plus 4-step infusion over 40 min) was 111.9 ng/mL and 91.52 ng/mL. Also, the “Maximum reduction in [11C]-raclopride binding (Occmax) in caudate and putamen” value in data set [4] (setting [9]) was 27%. Moreover, in data set [4] (setting [9]), the “Time for half-maximal displacement (t1/2,R) of [11C]-raclopride” value amounted to 23 min. Moreover, the “Time for half-maximal displacement of [11C]-raclopride shorter than for DAS” value in data set [4] (MPH 0.5 mg/kg relative to DAS 0.2 mg/kg) amounted to 4 fold. In addition, the “Changes in heart rate, respiratory rate, blood pressure, oxygen saturation and temperature compared with baseline” value in data set [5] was “No changes outside physiologically accepted limits”. Further, in data set [5], the “Tolerability of i.v. administration” value is on record as “tolerated”. Also, in data set [6] (ref Faraj et al. [1974]), the Plasma protein binding is listed as less than 14%. For the same compound, the “DAT occupancy OC50” value in data set [7] (ref Spencer et al. [2006]) is 6 ng/mL. Besides, in data set [8], the “Time of peak of dopamine efflux” value was 40 min.

With `N[C@@H]1CC[C@@H](c2ccc(Cl)c(Cl)c2)c2ccccc21` [DAS, (1R,4S)-4-(3,4-dichlorophenyl)-1,2,3,4-tetra-hydronaphthalen-1-amine], the “Free plasma concentration (fraction)” value in data set [1] came to 0.03. Moreover, in data set [1], the Free plasma concentration was 3%. In addition, the “t1/2equil (half-time to reach brain equilibrium), proportional to” value in data set [2] (1/(P.fu,brain) with extrapolated permeability (DAS 12P, MPH P) and free plasma fraction) is 2.77 P. Further, the peak concentration (Cmax) in data set [3] (DAS 0.1 mg/kg i.v. 3 min bolus, individual animals A-D) was 87.9 ng/mL and 25.9 ng/mL and 102 ng/mL and 54.6 ng/mL; in data set [3] (DAS 0.2 mg/kg i.v. 3 min bolus, individual animals A-D), 213 ng/mL and 123 ng/mL; in data set [3] (rhesus monkey, plasma, iv, 0.1 mg/kg, DAS 0.1 mg/kg i.v. 3 min bolus, group mean, read-out: Cmax, Mean ± SD), 71.9 ± 23.4 ng/mL; in data set [3] (rhesus monkey, plasma, iv, 0.2 mg/kg, DAS 0.2 mg/kg i.v. 3 min bolus, group mean, read-out: Cmax, Mean ± SD), 175 ± 26.9 ng/mL; in data set [3] (rhesus monkey, plasma, iv, 0.2 mg/kg, DAS 0.2 mg/kg i.v. 3 min bolus, individual animals A-D, read-out: Cmax), 190 ng/mL. In addition, the “Average plasma (infusion period)” value in data set [3] (DAS 6.0 mg, bolus plus 4-step infusion over 40 min) was 34.86 ng/mL and 32.38 ng/mL. Besides, the “Average plasma (infusion period), Mean” value in data set [3] (DAS 6.0 mg, bolus plus 4-step infusion over 40 min, mean of two animals) amounted to 33.62 ng/mL. For the same compound, the “Maximum reduction in [11C]-raclopride binding (Occmax) in caudate and putamen” value in data set [4] (setting [10]) was determined as 29%. For the same compound, in data set [4] (setting [10]), the “Time for half-maximal displacement (t1/2,R) of [11C]-raclopride” value is 88 min. Further, in data set [4] (DAS relative to MPH), the “Time to 50% maximum displacement of [11C]-Raclopride / elevation of synaptic DA slower than MPH” value was ~ 4 fold and 4 fold. Moreover, the “Changes in heart rate, respiratory rate, blood pressure, oxygen saturation and temperature compared with baseline” value in data set [5] is listed as “No changes outside physiologically accepted limits”. Moreover, the “Tolerability of i.v. administration” value in data set [5] was “tolerated”. Also, the Plasma protein binding in data set [6] (Data-on-file, ref Sunovion report 360–455) is given as ~ 97%. In addition, in data set [6] (as fraction, Sunovion report 360–455 (DAS)), the “Plasma protein binding (fraction)” value is recorded as ~ 0.97. For the same compound, the “Reported human DAT RO50” value in data set [7] (human, ref DeLorenzo et al. [2011], Hopkins et al. [2017]) was 4.5 to 6 ng/mL. In addition, the “DAT occupancy OC50” value in data set [7] (ref DeLorenzo et al. [2011]) was 4 ng/mL. Further, in data set [8], the “Time to reach maximum effect on dopamine efflux post-dose” value is reported as “up to 2 h”.
